# Test results as given in patent US6048888A, “Method and pharmaceutical formulation for treating benign prostatic hyperplasia” (priority 1993, dated 2000).
# What was measured:
# [1] = tested on: melatonin binding sites in cytosol of epithelial cells from human BPH prostate tissue; experiment: Specific binding of 125I-melatonin to cytosol from epithelial cells of human BPH tissue; settings: for Bound in Epithelial (specific binding, mean): 4 patients
# Protocol: (§1) Tissue specimens were obtained from prostate glands removed by open surgery from patients suffering from urinary obstruction due to benign prostatic hyperplasia. Epithelial and stromal cells were separated from the tissue by filtration through a stainless steel mesh. The cells were then washed with saline and collected by centrifugation (1000 g, 5 min). […] The two preparations were separately homogenized at 4° C. in 0.05 M Tris-HCl, pH 7.4. Each homogenate was spun at 100,000 g for 1 hour at 4° C. and the supernatant was removed with a Pasteur pipette. Melatonin binding was measured by incubating 300 microliters of supernatant containing ca. 20 mcg. protein with carrier-free ^125 I-melatonin at concentrations of 0-1 nM, for 1 hour at 37° C. in the presence of 0.05% Triton X-100. After the incubation period, bound ^125 I-melatonin was separated from free ^125 I-melatonin by vacuum filtration using GFF glass fiber filters saturated with polyethylenimine. Protein concentrations were measured by the method of Lowry et al (J. Biol. Chem., 193: 265, 1951) using bovine serum albumin as a standard. Non-specific binding was determined by incubating the supernatant samples with the specified concentrations of ^125 I-melatonin, but in the presence of a vast excess (10 micromolar) nonradioactive melatonin.
# [2] = tested on: melatonin binding sites in cytosol of stromal cells from human BPH prostate tissue; experiment: Specific binding of 125I-melatonin to cytosol from stromal cells of human BPH tissue; settings: for Bound in Stromal (specific binding, mean): 4 patients
# Protocol: as §1, with “melatonin. These experiments were repeated four times, using specimens from four different patients, with similar results.” for “melatonin.”
# [3] = tested on: patient with benign prostate hypertrophy; experiment: Example I: BPH patient on 0.5 mg sustained release melatonin daily; type: in vivo, human
# Protocol: Thus, the patient's PSA level was elevated, and their prostatic acid phosphatase level was slightly above normal. […] Diagnosis after needle biopsy was benign prostate hypertrophy.
# The patient began taking 0.5 mg melatonin in the sustained release form daily at 21:00-22:00 hours on Feb. 1, 1992; on a continuing basis, i.e. medication was continued essentially indefinitely. […] Examination of the patient by ultrasonographic scanning on Oct. […] By Jun.
# human subjects = settings: cited from earlier work
# [4] = tested on: castrated rats; hypophysectomized animals; settings: cited from earlier work
# [5] = tested on: melatonin binding sites in the rat brain; experiment: Experiment 5: melatonin binding sites in rat brain, sham-operated and pinealectomized rats; type: in vivo
# male and female rats = settings: oral 16-40 mcg. per day; cited from earlier work
# 3α reductase = settings: BPH tissue samples; cited from earlier work
# [6] = tested on: 8-10 month old adult rats; experiment: Experiment 4: long term (~18 months) melatonin via drinking water in adult rats; type: in vivo, rat
# Protocol: The effects on 8-10 month old adult rats, of long term (~18 months) administration of melatonin via the drinking water (4 mg./l.), on the survival, on central melatonin binding sites, and on serum testosterone, were investigated.
# pinealectomized rats = settings: orally administered; cited from earlier work
# 5α reductase = settings: BPH tissue samples; cited from earlier work
# aged male rats = experiment: Experiment 3: melatonin via drinking water for 30 days in aged male rats; type: in vivo, rat; settings: 23-month old male rats
# Protocol: The impact of exogenously administered melatonin on central melatonin binding sites and serum testosterone in aged male rats was investigated. Thus, 23-month old male rats were treated with melatonin via the drinking water for 30 days.
# BPH patients [7] = type: in vivo, human
# Protocol: In a clinical trial which commenced in April, 1993, 23 BPH patients were recruited and divided into two groups, one group receiving 5 mg melatonin in a sustained release formulation and the other group 50 mg melatonin in a fast release formulation, these dosages being given daily, in the evening. One patient withdrew from the study after 7 days of treatment. […] Up to August, 1993, 6 patients finished 3 months' treatment with melatonin, and the remainder had 1-2 months treatment. All patients will continue the treatment with melatonin until 6 months is completed.
# [8] = tested on: male volunteers suffering from BPH; experiment: Experiment 2: placebo-controlled study of oral melatonin in male volunteers suffering from BPH; type: in vivo, human; settings: 5 mg melatonin/day oral at about 10 p.m.; preliminary results
# BPH patients [9] = experiment: Example II: ultrastructural morphology of the human prostate after 30 days of melatonin; type: in vivo; settings: 5 mg sustained release daily in the evening, 30 days prior to prostatectomy, five BPH patients
# Description: Specimens from the prostate glands removed from the treated patients, and from control untreated patients of the same status, were fixed in glutaraldehyde immediately after the excision, embedded in "Epon" and analyzed by electron microscopy.
# adult castrated rats = experiment: Experiment 1: androgen-dependent regrowth of accessory sex organs in adult castrated rats; type: in vivo, rat; settings: testosterone propionate 1 mg/kg/day s.c. 4 days, melatonin about 40 mcg per day in drinking water
# Protocol: The effects of orally administered melatonin on androgen-dependent prostatal regrowth in adult castrated rats was investigated. Male rats (2.5 months old) were castrated under anesthesia. After 7 days, during which the average weight of the prostate decreased by ca. 60%, the rats were given daily for 4 days, a subcutaneous injection of either oil vehicle (control) or oil vehicle containing testosterone propionate (1 mg/kg body weight per day, at one hour before lights-off). […] In order to determine the weight of the relevant organs, the rats were sacrificed at the end of the 4 days following the first 7 days. […] These studies indicate a direct inhibitory effect of orally administered melatonin on prostatal growth in adult rats, contrary to the dogma that melatonin can affect the pubertal development of the rat only during the first (prepubertal) 40 days of life (Lang et al. Endocrinology,112, 1578-1584, 1983).
# [10] = 4 mg./l. in drinking water, ~18 months
# [11] = patients who had completed 3 months' treatment
# [12] = pinealectomized rats, daily injections
compound,measurement,setting,value
COc1ccc2[nH]c([125I])c(CCNC(C)=O)c2c1 [^125 I-melatonin],"Bound in Epithelial (specific binding, mean)",[1]; 125I-melatonin 0.05 nM,6.25 fmol/mg protein
same,"Bound in Epithelial (specific binding, mean)",[1]; 125I-melatonin 0.10 nM,12.5 fmol/mg protein
same,"Bound in Epithelial (specific binding, mean)",[1]; 125I-melatonin 0.20 nM,31.3 fmol/mg protein
same,"Bound in Epithelial (specific binding, mean)",[1]; 125I-melatonin 0.30 nM,45.6 fmol/mg protein
same,"Bound in Epithelial (specific binding, mean)",[1]; 125I-melatonin 0.50 nM,66.9 fmol/mg protein
same,"Bound in Epithelial (specific binding, mean)",[1]; 125I-melatonin 1.00 nM,93.1 fmol/mg protein
same,"Bound in Stromal (specific binding, mean)",[2]; 125I-melatonin 0.05 nM,0.6 fmol/mg protein
same,"Bound in Stromal (specific binding, mean)",[2]; 125I-melatonin 0.10 nM,2.5 fmol/mg protein
same,"Bound in Stromal (specific binding, mean)",[2]; 125I-melatonin 0.20 nM,3.7 fmol/mg protein
same,"Bound in Stromal (specific binding, mean)",[2]; 125I-melatonin 0.30 nM,4.3 fmol/mg protein
same,"Bound in Stromal (specific binding, mean)",[2]; 125I-melatonin 0.50 nM,8.8 fmol/mg protein
same,"Bound in Stromal (specific binding, mean)",[2]; 125I-melatonin 1.00 nM,16.2 fmol/mg protein
COc1ccc2[nH]cc(CCNC(C)=O)c2c1 [melatonin],urinary flow (subjective),"[3]; 0.5 mg sustained release daily at 21:00-22:00, 6 days after initiation",subjective improvement in urinary flow
same,estimated size of the prostate gland (ultrasonographic scanning),"[3]; 0.5 mg sustained release daily, Oct. 22, 1992, 55 g before and after",no change in estimated size of the prostate gland
same,residual bladder urine volume retained after two attempts to empty the bladder,"[3]; 0.5 mg sustained release daily, Oct. 22, 1992, 100 ml before treatment",zero
same,toxicity,"human subjects; human, in vivo",no significant toxicity has been observed
same,circulating testosterone levels,human subjects; humans,does not increase circulating testosterone levels
same,weight of testes and ventral prostate gland,[4]; hypophysectomized animals,decreases the weight of both the testes and the ventral prostate gland
same,regression of the ventral prostate gland,"[4]; subcutaneous 750 mcg., castrated rats, in presence of exogenous testosterone",enhances regression of the ventral prostate gland
same,Kd,"[1]; 125I-melatonin probe, epithelial cell cytosol, 1 hour at 37° C., read-out: dissociation constant",0.6 nM
same,binding site density,[1]; epithelial cell cytosol,140 fmol/mg cytosol protein
same,125I-melatonin binding in the various brain areas,"[5]; pinealectomized rats, melatonin via drinking water, any time recorded",had no effect on ^125 I-melatonin binding
same,125I-melatonin binding in hippocampus and midbrain,"[5]; sham-operated rats, melatonin via drinking water, 13 hours after lights-on",decrease in ^125 I-melatonin binding
same,"pubertal development, including prostate development in the males",male and female rats,delayed pubertal development of male and female rats
same,3α reductase activity,3α reductase,stimulate 3α reductase activity
same,melatonin binding sites in brain of aged rats,[6]; [10],significantly increased melatonin binding sites in the medulla-pons and hypothalamus
same,number of rats surviving at the age of 24-29 months,[6]; [10],markedly increased the number of rats surviving
same,serum testosterone levels vs untreated controls,[6]; [10],significantly higher
same,survival at age 27-29 months,"[6]; 4 mg./l. in drinking water, control 7 of 16",these continued to live at age 27-29 months
same,animals surviving at age 26-28 months,"[6]; 4 mg./l. in drinking water, control 8 of 16, P=0.01",13 of 15 animals
same,pneumonia,"[6]; aged survivors, 5 of 7 control survivors had severe pneumonia","either did not suffer from pneumonia, or had only very weak symptoms"
same,"concentration of binding sites in stromal cytosol, factor lower than epithelial",[2]; relative to 140 fmol/mg in epithelial cytosol,approximately 10 x
same,specific binding in the stromal preparations,[2]; stromal cell cytosol,very low
same,ventral prostate and seminal vesicle weight,pinealectomized rats,lowered ventral prostate and seminal vesicle weight
same,5α reductase activity,5α reductase,did not affect 5α reductase activity
same,melatonin binding sites in brain areas,aged male rats,"markedly increased melatonin binding sites in the hypothalamus, medulla-pons, thalamus and cortex"
same,serum testosterone levels vs untreated controls,aged male rats,did not significantly differ
same,suppressive effect of testosterone on melatonin binding sites in hypothalamus and hippocampus,aged male rats,attenuated a suppressive effect of testosterone on melatonin binding sites
same,urinary flow (subjective),"BPH patients [7]; 5 mg sustained release or 50 mg fast release daily in the evening, all patients but one who withdrew",subjective improvement of urinary flow
same,decrease in the PSA level,BPH patients [7]; [11],approximately 10%
same,enlargement of the prostate gland,BPH patients [7]; [11],no further enlargement of the prostate gland
same,urinary flow,[8],immediate improvement in urinary flow in some of the patients
same,ultrastructural morphology of prostate specimens (electron microscopy),BPH patients [9],evidence for secretion of fresh collagen bundles
same,weight / regrowth of seminal vesicles,adult castrated rats,did not significantly affect regrowth of the seminal vesicles
same,weight / regrowth of ventral prostate,adult castrated rats,prevented the testosterone-mediated regrowth of the prostate
same,weight of epididemis,adult castrated rats,had hardly any effect on the epididemis
O=C1Nc2ccc(Cl)cc2C(c2ccccc2)=NC1O (stereo not shown) [oxazepam],melatonin binding at other times of the day,[5]; [12],did not significantly effect the binding at other times of the day
same,melatonin binding sites at 19 hours after lights-on,[5]; [12],decreased melatonin binding sites at 19 hours after lights-on
same,"densities of melatonin binding sites in brain areas, time of peak","[5]; sham-operated rats, daily injections 14 days, untreated peak at 13 hours after lights-on",higher at midnight
"CCC(=O)O[C@H]1CC[C@H]2[C@@H]3CCC4=CC(=O)CC[C@]4(C)[C@H]3CC[C@]12C [testosterone, testosterone propionate]",weight / regrowth of seminal vesicles,adult castrated rats,increased the weight of the seminal vesicles and ventral prostate
same,weight / regrowth of ventral prostate,adult castrated rats,increased the weight of the seminal vesicles and ventral prostate
same,weight of epididemis,adult castrated rats,had no effect on the epididemis
